Publication PMC4147344, “Discovery of novel non-ATP competitive FGFR1 inhibitors and evaluation of their anti-tumor activity in non-small cell lung cancer in vitro and in vivo” (Oncotarget, 2014)
Where “and” joins values, the source holds several entries; their conditions need not be identical. Equal entries are not always repeated. Where two headings read alike, the source gives them in different places.

Legend:
FGFR1 [1] = molecular target: T1, FGFR1 (Homo sapiens, UniProt P11362); assay: Cell-free kinase activity assay (Caliper Mobility Shift Assay); type: biochemical; conditions: ATP at Km; mean of 3-5 independent tests
T1 construct: purchased Carna Biosciences Inc. (Kobe, Japan)
T1 sequence (P11362 22-822): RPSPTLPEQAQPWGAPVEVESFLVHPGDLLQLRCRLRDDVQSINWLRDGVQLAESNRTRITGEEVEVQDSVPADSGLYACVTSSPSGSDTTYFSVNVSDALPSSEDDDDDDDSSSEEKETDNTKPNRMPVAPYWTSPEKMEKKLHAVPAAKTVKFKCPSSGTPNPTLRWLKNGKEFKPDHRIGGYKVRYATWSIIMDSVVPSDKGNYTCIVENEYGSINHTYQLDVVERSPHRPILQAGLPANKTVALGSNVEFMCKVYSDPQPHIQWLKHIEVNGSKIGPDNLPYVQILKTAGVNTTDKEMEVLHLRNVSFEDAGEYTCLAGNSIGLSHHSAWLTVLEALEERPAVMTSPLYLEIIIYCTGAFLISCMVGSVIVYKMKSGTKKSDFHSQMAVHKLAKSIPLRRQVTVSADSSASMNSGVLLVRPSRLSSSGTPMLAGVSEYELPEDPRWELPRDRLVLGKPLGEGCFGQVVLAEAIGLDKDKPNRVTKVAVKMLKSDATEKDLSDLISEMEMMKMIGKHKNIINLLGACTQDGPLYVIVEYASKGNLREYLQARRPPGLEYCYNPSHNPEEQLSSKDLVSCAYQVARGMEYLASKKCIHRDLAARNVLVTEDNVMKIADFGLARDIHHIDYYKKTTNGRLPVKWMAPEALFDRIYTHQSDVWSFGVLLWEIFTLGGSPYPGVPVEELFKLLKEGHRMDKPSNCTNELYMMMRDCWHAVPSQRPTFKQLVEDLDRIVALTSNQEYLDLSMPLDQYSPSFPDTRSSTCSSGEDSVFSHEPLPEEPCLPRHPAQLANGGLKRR
Description: (§3) Compounds were performed with caliper mobility shift assay for RTK inhibition, and the IC50 values were calculated using conversion rates. The data were shown as a mean of 3-5 independent tests.
(§4) The activity of tyrosine kinase including FGFR1, FGFR2, FGFR3, EGFR, VEGFR-2, c-MET, and PDGFR-β were tested by Caliper Mobility Shift Assay on Caliper EZ reader (Caliper Life Sciences, MA) according to the instructions provided. […] For each kinase assay, the ATP concentration used in the assay was set at the Km value of the corresponding kinase. […] In the electrophoretic mobility shift assays, product accumulation was expressed as percentage conversion, product peak height/(product peak height + substrate peak height).

FGFR2 = molecular target: T2, FGFR2 (Homo sapiens, UniProt P21802); assay: as above; type: biochemical
T2 construct: purchased Carna Biosciences Inc. (Kobe, Japan)
T2 sequence (P21802 22-821): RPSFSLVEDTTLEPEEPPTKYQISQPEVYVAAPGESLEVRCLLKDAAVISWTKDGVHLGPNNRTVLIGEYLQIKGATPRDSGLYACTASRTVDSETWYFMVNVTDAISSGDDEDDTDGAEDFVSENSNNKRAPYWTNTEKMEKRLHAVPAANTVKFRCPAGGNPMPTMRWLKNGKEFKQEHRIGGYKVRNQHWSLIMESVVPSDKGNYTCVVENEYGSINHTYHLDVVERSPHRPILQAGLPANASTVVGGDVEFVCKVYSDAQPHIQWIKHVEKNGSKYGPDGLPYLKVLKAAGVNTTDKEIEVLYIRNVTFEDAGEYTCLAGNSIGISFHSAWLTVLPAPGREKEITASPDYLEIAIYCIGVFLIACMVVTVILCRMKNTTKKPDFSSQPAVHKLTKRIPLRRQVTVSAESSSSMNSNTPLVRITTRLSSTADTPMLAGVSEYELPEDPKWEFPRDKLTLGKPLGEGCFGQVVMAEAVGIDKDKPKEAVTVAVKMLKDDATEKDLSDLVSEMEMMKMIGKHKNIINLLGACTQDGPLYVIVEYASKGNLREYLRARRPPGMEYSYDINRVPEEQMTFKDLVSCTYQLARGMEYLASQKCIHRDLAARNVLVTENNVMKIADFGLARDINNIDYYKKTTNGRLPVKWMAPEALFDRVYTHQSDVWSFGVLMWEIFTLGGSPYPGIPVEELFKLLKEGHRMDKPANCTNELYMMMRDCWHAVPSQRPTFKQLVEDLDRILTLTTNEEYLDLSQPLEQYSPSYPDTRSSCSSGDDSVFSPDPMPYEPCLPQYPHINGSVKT
Description: as §3, §4

FGFR3 = molecular target: T3, FGFR3 (Homo sapiens, UniProt P22607); assay: as above; type: biochemical
T3 construct: purchased Carna Biosciences Inc. (Kobe, Japan)
T3 sequence (P22607 23-806): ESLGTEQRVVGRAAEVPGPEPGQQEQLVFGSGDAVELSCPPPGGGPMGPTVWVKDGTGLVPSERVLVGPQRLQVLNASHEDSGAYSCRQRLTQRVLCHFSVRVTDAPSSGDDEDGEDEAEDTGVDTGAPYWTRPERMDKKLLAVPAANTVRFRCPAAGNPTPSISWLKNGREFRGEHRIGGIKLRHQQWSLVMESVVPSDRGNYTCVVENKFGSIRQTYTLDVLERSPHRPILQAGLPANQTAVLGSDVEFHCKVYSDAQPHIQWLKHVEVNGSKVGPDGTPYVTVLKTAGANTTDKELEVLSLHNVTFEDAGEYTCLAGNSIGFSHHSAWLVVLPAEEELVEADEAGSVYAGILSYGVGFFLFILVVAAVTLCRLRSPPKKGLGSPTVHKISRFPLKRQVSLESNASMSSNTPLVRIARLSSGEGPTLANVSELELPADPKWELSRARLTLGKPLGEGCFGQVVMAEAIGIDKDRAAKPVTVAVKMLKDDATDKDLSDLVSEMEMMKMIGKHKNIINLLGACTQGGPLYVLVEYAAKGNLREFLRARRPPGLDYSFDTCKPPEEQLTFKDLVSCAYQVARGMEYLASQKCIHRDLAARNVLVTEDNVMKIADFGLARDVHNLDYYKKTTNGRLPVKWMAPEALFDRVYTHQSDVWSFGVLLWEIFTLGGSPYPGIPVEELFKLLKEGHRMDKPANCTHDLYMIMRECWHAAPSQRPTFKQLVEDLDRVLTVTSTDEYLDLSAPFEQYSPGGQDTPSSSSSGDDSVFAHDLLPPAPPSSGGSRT
Description: as §3, §4

EGFR = molecular target: T4, EGFR (Homo sapiens, UniProt P00533); assay: as above; type: biochemical; conditions: ATP at Km; mean of 3-5 independent tests
T4 construct: purchased Carna Biosciences Inc. (Kobe, Japan)
Description: as §3, §4

VEGFR2 = molecular target: T5, VEGFR2 (Homo sapiens, UniProt P35968); assay: as above; type: biochemical; conditions: ATP at Km; mean of 3-5 independent tests
T5 construct: purchased Carna Biosciences Inc. (Kobe, Japan)
T5 sequence (P35968 20-1356): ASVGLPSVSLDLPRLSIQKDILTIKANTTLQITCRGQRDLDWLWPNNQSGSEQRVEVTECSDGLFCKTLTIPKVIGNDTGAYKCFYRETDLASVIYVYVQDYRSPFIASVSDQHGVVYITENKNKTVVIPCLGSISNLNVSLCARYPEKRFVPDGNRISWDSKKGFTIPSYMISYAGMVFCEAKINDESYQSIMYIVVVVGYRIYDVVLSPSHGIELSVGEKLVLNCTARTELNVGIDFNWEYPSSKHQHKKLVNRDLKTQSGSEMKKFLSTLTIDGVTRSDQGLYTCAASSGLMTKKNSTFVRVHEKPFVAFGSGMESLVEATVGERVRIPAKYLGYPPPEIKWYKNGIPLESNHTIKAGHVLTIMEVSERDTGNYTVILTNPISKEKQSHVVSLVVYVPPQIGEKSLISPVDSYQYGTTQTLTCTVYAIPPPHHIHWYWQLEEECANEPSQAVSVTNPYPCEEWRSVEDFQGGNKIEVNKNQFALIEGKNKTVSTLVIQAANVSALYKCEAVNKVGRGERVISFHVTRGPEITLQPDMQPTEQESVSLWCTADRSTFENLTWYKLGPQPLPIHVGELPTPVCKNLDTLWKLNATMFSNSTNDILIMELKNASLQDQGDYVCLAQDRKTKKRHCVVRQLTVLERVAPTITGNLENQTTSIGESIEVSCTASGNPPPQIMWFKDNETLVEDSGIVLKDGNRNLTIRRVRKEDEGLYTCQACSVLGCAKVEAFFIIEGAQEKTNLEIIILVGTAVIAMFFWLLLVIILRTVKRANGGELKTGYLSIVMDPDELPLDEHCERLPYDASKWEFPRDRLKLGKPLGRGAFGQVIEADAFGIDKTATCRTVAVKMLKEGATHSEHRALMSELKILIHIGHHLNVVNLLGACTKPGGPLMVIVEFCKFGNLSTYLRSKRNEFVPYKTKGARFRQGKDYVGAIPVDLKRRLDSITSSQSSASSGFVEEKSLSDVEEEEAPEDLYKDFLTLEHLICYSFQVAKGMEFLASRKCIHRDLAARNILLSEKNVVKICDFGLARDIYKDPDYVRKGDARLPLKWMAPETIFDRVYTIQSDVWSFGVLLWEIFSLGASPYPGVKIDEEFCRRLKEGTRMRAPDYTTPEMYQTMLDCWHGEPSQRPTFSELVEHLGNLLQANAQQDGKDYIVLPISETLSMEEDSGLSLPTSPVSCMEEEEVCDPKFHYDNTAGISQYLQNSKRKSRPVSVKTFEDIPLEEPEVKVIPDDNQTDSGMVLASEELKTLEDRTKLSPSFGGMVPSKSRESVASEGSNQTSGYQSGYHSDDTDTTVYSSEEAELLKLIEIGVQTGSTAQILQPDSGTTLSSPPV
Description: as §3, §4

c-MET = c-MET (Homo sapiens, UniProt P08581); assay: as above; type: biochemical; conditions: ATP at Km; mean of 3-5 independent tests
Chain of c-MET (P08581 25-1390): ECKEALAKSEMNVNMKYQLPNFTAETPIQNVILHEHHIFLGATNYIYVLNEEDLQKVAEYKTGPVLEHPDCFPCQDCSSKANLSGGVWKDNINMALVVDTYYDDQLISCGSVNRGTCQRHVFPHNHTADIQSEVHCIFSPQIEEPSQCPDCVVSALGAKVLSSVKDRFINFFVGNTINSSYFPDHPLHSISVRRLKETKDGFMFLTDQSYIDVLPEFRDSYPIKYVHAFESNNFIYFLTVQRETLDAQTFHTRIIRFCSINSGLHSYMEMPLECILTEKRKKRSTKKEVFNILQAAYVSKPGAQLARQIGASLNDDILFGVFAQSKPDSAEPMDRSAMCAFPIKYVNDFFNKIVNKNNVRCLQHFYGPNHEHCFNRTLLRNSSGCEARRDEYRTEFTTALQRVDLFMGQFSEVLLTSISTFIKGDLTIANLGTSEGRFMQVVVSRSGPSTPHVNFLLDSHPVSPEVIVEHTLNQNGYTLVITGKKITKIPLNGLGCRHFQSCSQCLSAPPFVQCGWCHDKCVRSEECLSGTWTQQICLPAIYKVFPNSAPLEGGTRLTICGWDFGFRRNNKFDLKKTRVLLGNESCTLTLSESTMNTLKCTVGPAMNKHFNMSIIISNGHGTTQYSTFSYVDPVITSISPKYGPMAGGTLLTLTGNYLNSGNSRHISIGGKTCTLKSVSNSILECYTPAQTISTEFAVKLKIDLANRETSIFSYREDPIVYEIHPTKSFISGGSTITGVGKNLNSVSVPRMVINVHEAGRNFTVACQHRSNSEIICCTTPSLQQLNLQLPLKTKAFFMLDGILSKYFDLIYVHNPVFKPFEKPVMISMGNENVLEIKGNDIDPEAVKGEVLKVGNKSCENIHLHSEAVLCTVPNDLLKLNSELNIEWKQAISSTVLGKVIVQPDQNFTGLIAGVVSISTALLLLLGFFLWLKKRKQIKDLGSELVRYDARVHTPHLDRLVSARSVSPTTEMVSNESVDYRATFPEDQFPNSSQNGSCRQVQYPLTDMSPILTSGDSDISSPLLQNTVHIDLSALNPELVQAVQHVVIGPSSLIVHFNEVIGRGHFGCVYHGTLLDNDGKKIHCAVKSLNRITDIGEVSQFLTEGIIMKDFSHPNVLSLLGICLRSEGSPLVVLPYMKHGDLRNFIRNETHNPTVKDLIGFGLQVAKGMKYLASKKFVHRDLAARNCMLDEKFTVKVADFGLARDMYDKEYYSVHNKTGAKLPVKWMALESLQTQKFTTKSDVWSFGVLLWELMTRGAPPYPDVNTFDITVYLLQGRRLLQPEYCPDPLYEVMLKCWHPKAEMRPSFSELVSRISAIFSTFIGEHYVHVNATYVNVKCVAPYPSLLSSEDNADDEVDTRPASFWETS
Description: as §3, §4

PDGFRβ = molecular target: T6, PDGFRβ (Homo sapiens, UniProt P09619); assay: as above; type: biochemical; conditions: ATP at Km; mean of 3-5 independent tests
T6 construct: purchased Carna Biosciences Inc. (Kobe, Japan)
Description: as §3, §4

FGFR1 [2] = molecular target: T1, FGFR1; assay: ATP competitive inhibition assay (caliper mobility shift assay); type: biochemical; conditions: ATP 33-4192 μM, substrate constant
Description: In the experiments for testing the relationship between the compounds and ATP, the concentration of the substrate was constant, while the concentrations of ATP were set at 4192, 2096, 1048, 524, 262, 131, 66, and33 μM. The global competitive inhibition fit for the compounds was performed based on percent conversion = (Vmax*X)/{km*[([1] + I/Ki)^n] + X}, where X is the ATP concentration, and n is the Hill coefficient.

H460 cells [3] = assay: MTT anti-proliferation assay; type: cell-based, human; conditions: for IC50: Homo sapiens, NCI-H460, 72 h, read-out: IC50 against H460 cells (MTT); for Time-course cell survival (MTT): 20 μM, 0-72 h
Description: (§1) Figure 3 […]25 inhibited proliferation and induced apoptosis in H460 cells (A) H460 cells were pretreated with compounds at indicated concentrations, followed by the treatment with bFGF (30 ng/mL) for 10 min. The phosphorylation level of FGFR1 in cell lysates was measured by western blot analysis. The column figures show the normalized optical density as a percentage of total FGFR1 control. (B) H460 cells were treated with compounds at concentrations (0.74, 2.22, 6.67, 20, and 60 μM) for 72 h. The MTT assay gives the respective IC50 values of compounds. (C) The time-course cell survival profile of H460 cells treated by compounds at 20 μM was detected through an MTT assay. (D) Effects of […]25 on caspase activation in H460 cells. […] The levels of cleaved caspase-3 and cleaved caspase-9 were determined by western blot analysis.

[4] = system: FGFR1-overexpressing HEK293 cells; assay: bFGF-induced phosphorylation of FGFR1 and ERK, western blot; type: cell-based; conditions: bFGF 30 ng/mL for 10 min, pretreatment with compound
Description: (C and D) FGFR1 over-expressing 293 cells were pretreated with compounds at indicated concentrations or vehicle (0.1% DMSO), respectively. Then, cells were stimulated with bFGF (30 ng/mL) for 10 min, and the phosphorylation level of FGFR1 and ERK in cell lysates was measured by western blot analysis. The figures were representative of 3 separate experiments (C). […] Statistical significance relative to bFGF alone group was expressed, * P <0.05, ** P < 0.01.
Cells or homogenated tumor tissues were lysated. The protein concentrations in all samples were determined by using the Bradford protein assay kit (Bio-Rad, Hercules, CA). The supernatant was run on 10% SDS-PAGE gel followed by being transferred to a PVDF membrane. After being blocked with 5% non-fat dry milk in TBST for 1.5h, the membrane was incubated with the primary antibody overnight followed by incubation with goat anti-rabbit IgG, HRP-linked antibody for 1 h. The blots were detected with an ECL detection kit (Bio-Rad, Hercules, CA) according to the manufacturer's procedure. The results were analyzed by Quantity One software to determine the relative band density ratio.

H460 cells [5] = assay: bFGF-induced phosphorylation of FGFR1, western blot; type: cell-based, human; conditions: bFGF 30 ng/mL for 10 min, pretreatment with compound
Description: as §1

H460 cells [6] = assay: Caspase activation (cleaved caspase-3 and -9), western blot; type: cell-based, human; conditions: 10 μM, 12 h
Description: as §1

H460 cells [7] = assay: Apoptosis analysis, Annexin V/PI flow cytometry; type: cell-based, human; conditions: 2.5, 5, 10 μM
H460 xenograft = assay: In vivo anti-tumor study, H460 xenograft; parameters: species or system BALB/cA nude mice; conditions: for Tumor weight inhibition rate: 3 mg/kg/d i.p. once daily for 28 days; for Tumor volume: 3 mg/kg/d i.p., 28th day, compared to model group
Description: (§2) Figure 4 Anti-tumor effects of compounds […] H460 xenograft models Xenografts were established in nude mice. […] (A) Tumor volume (mm^3) and (B) Tumor weight (g) were recorded (* P <0.05, ** P < 0.01). (C) Body weight of each mice was recorded. (D) pFGFR1 expressions in tumor tissues were detected by Western Blot with FGFR1 as internal control. (E) The levels of p-ERK, p-AKT, Bcl-2, CyclinD1, and COX-2 in tumor tissues were detected by immunohistochemical staining. Representative pictures are shown.

[8] = Body weight of mice in H460 xenograft study; type: in vivo, BALB/cA nude mice; conditions: for Change of body weight during treatment: 3 mg/kg/d i.p. for 28 days; for Body weight: 3 mg/kg/d i.p., in g (unit assumed)
Description: as §2

[9] = system: H460 xenograft tumor tissue; assay: Protein levels in xenograft tumor tissue (western blot, immunohistochemistry); type: in vivo, BALB/cA nude mice; conditions: 3 mg/kg/d i.p.; for Phosphorylated FGFR1 in tumor tissue (western blot): compared to untreated group; for Expression of Bcl-2, Cyclin D1 and cox-2 in tumor tissue (immunohistochemistry): compared with model group
Description: as §2

IC50 (FGFR1 [1]) | IC50 (EGFR) [µM] | IC50 (VEGFR2) [µM] | IC50 (c-MET) [µM] | IC50 (PDGFRβ) [µM] | IC50 (H460 cells [3]) [µM] | SMILES | Effect of increased ATP concentration on FGFR1 inhibition (mode of inhibition) (FGFR1 [2]) | Phosphorylation of FGFR1 and ERK [4] | Phosphorylation of FGFR1 (H460 cells [5]) | Time-course cell survival (MTT) (H460 cells [3]) | Expression of cleaved caspase 3 and 9 (H460 cells [6]) | Apoptotic cell rate (H460 cells [7]) | Tumor weight inhibition rate (H460 xenograft) [%] | Tumor volume (H460 xenograft) | Change of body weight during treatment [8] | Body weight ([8]; Week 1st) | Body weight ([8]; Week 2nd) | Body weight ([8]; Week 3rd) | Body weight ([8]; Week 4th) | Phosphorylated FGFR1 in tumor tissue (western blot) [9] | also measured
24.5 µM | 89.9 | > 100 | > 100 | > 100 | 15.6 ± 1.2 | C[C@H](Cc1ccc(O)c(O)c1)[C@@H](C)Cc1ccc(O)c(O)c1 [NDGA, Nordihydroguaiaretic acid, reference compound] | did not affect the rate of FGFR1 substrate phosphorylation | – | – | – | – | – | – | – | – | – | – | – | – | – | IC50 (FGFR2; ATP at Km, mean of 3-5 independent tests, read-out: IC50 FGFR2): > 100 µM; IC50 (FGFR3; ATP at Km, mean of 3-5 independent tests, read-out: IC50 FGFR3): 72.4 µM
– | – | – | – | – | 5 | O=C1/C(=C/c2ccccc2Cl)CNC/C1=C\c1ccccc1Cl [Aea4] | – | inhibited their phosphorylation of FGFR1 and ERK in a dose-dependent manner | inhibited this effect in a dose-dependent fashion | inhibit cell proliferation and increase cell death of H460 time-dependently | significantly increased | induced H460 cell apoptosis in a dose-dependent manner | 55.0 | significant reduction in tumor volume at the 28th day | no obvious change | 23.37 ± 0.73 | 24.94 ± 0.83 | 25.81 ± 0.85 | 24.94 ± 0.79 | decreased expression of phosphorylated FGFR1 | Expression of Bcl-2, Cyclin D1 and cox-2 in tumor tissue (immunohistochemistry) [9]: effectively restrained the expression of Bcl-2, Cyclin D1 and cox-2
8.8 µM and 6.5 µM | 33.3 | 28.6 | 8.2 | 84 | 5.8 | O=C1/C(=C/c2ccccc2Br)CNC/C1=C\c1ccccc1Br [Aea25] | ATP independent manner | inhibited their phosphorylation of FGFR1 and ERK in a dose-dependent manner | inhibited this effect in a dose-dependent fashion | inhibit cell proliferation and increase cell death of H460 time-dependently | significantly increased | induced H460 cell apoptosis in a dose-dependent manner | 66.5 | significant reduction in tumor volume at the 28th day | no obvious change | 22.01 ± 0.75 | 24.02 ± 0.53 | 25.26 ± 0.38 | 25.36 ± 0.51 | decreased expression of phosphorylated FGFR1 | IC50 (FGFR2): 43.3 µM; IC50 (FGFR3): 43.2 µM; Expression of Bcl-2, Cyclin D1 and cox-2 in tumor tissue (immunohistochemistry) [9]: effectively restrained the expression of Bcl-2, Cyclin D1 and cox-2
